Entries after “also recorded” stand apart in the source; their conditions may differ.

One series has as its system human THP-1 monocytic cells. Put plainly: Cytotoxicity assay (CellTiter-Glo Luminescent Cell Viability Assay). It counts as cell-based. The following applies: THP-1 cells, concentrations up to 50 μM, 24 h. On the procedure:
The cytotoxicity of the synthesized compounds was analyzed using a CellTiter-Glo Luminescent Cell Viability Assay Kit (Promega, Madison, WI, USA) according to the manufacturer’s protocol. Human THP-1 monocytic cells obtained from ATCC (Manassas, VA, USA) were cultured in RPMI 1640 medium (Mediatech Inc., Herndon, VA, USA) supplemented with 10% (v/v) FBS, 100 μg/mL streptomycin, and 100 U/mL penicillin. For the cytotoxicity assay, the cells were cultured at a density of 10^4 cells/well with different concentrations of the test compounds added ([…], 12.5, 25, 50 μM; final concentration of DMSO was 1%) for 24 h at 37 °C and 5% CO2. Following treatment, substrate was added to the cells, and the samples were analyzed with a Fluoroscan Ascent FL microplate reader.
With “[(1R,9aR)-octahydro-2H-quinolizin-1-yl]methane [Lupinine]”, the Cytotoxicity result was “no cytotoxicity”.

The target in another series is T1, AChE (Homo sapiens, UniProt P22303).
T1 construct: purchased Sigma-Aldrich Chemical Co
T1 sequence (P22303 32-614): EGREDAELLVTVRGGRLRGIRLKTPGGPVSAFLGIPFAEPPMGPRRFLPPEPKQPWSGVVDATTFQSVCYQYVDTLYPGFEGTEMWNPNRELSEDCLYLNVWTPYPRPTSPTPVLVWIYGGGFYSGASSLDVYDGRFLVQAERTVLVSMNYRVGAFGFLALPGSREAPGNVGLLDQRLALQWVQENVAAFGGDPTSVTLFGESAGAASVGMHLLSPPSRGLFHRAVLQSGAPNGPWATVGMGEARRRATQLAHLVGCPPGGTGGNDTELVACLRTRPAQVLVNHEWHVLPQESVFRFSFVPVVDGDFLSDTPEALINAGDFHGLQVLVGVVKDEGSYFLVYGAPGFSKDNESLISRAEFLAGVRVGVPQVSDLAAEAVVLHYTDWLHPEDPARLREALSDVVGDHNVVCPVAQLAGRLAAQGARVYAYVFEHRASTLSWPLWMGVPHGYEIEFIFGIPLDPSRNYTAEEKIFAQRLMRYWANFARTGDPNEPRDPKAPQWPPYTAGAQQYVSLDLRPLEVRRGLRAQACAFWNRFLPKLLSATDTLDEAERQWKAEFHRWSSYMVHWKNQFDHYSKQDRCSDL
Assay: not given
The following applies: previously reported AChE inhibitors with a 4-benzyloxyphenyl moiety; ref [36],[37],[38]; read-out: AChE inhibitory activity IC50 of previously reported inhibitors; cited from earlier work.
With `Cn1c(/C=N/Nc2ccc(OCc3ccccc3)cc2)nc2ccccc21` [Compound A, (E)-2-((2-(4-(benzyloxy)phenyl)hydrazineylidene)methyl)-1-methylbenzimidazole], the IC50 is 11800 nM. Regarding `CCc1nnc(/N=C2\NC(=O)/C(=C\c3ccc(OCc4ccccc4)cc3)S2)s1` [Compound B, (E)-5-((E)-4-(benzyloxy)benzylidene)-2-((5-ethyl-1,3,4-thiadiazol-2-yl)imino)thiazolidin-4-one], the IC50 is 1200 nM. Consider `COc1cc(/C=C/C(=O)NCCNc2cc(C)nc3ccccc23)ccc1OCc1ccccc1` [Compound C, (E)-3-(4-(benzyloxy)-3-methoxyphenyl)-N-(2-((2-methylquinolin-4-yl)amino)ethyl)acrylamide], for which the IC50 was 600 nM.

In a further series the target is T1, AChE. Put plainly: biochemical. In kind it is biochemical.
Conditions: not given
An excerpt: The kit is based on an improved Ellman method, whereby thiocholine produced from AChE activity forms a yellow color with 5,5′-dithiobis(2-nitrobenzoic acid), and the intensity the color (412 nm) is proportional to the enzyme activity.
As to `O=C(CCCCl)OC[C@@H]1CCCN2CCCC[C@H]12` [Compound 22], half-maximal inhibition (IC50) required 39.5 ± 7.2 µM. Same read-out and setting: then `O=C(Nc1ccc(Cl)c(Cl)c1)OC[C@@H]1CCCN2CCCC[C@H]12` [Compound 41], with 99.4 ± 12.3 µM.

The same series, now with this note: Experimentally determined class, Active or NA.
`O=C(CCCCl)OC[C@@H]1CCCN2CCCC[C@H]12` [Compound 22]: the “Observed class for AChE inhibitory activity” value is given as “Active”.

Regarding `CC1(C)CC(=O)c2c(C(=O)OC[C@@H]3CCCN4CCCC[C@H]34)coc2C1` [Compound 25], the “Observed class for AChE inhibitory activity” value was “Active”.

The same series, now with this note: N.A.: no activity was observed at the highest concentration tested (150 µM); 5–7 tested concentrations; read-out: AChE inhibitory activity IC50.
For the compound `Nc1nc(SCc2cn(C[C@@H]3CCCN4CCCC[C@H]34)nn2)n[nH]1` [Compound 5, 3-((1-(((1S,9aR)-Octahydro-1H-quinolizine-1-yl)methyl)-1H-1,2,3-triazole-4-yl)methylthio)-1H-1,2,4-triazole-5-amine], the concentration for half-maximal inhibition (IC50) came out at 101 ± 23.9 µM. The same measure, in the same setting: then `CCOc1cc(C=O)ccc1OCc1cn(C[C@@H]2CCCN3CCCC[C@H]23)nn1` [Compound 7, 3-Ethoxy-4-((1-(((1S,9aR)-octahydro-1H-quinolizine-1-yl)methyl)-1H-1,2,3-triazole-4-yl)methoxy)benzaldehyde], with 73.4 ± 16.7 µM; and `COc1cccc(-c2cn(C[C@@H]3CCCN4CCCC[C@H]34)nn2)c1` [Compound 13], with 51.8 ± 9.2 µM; and `COc1cc(-c2cn(C[C@@H]3CCCN4CCCC[C@H]34)nn2)ccc1OCc1ccccc1` [Compound 15, (1S,9aR)-1-((4-(4-(benzyloxy)-3-methoxyphenyl)-1H-1,2,3-triazol-1-yl)methyl)octahydro-2H-quinolizine], with 7.2 µM. In the case of `CCc1cc(C(=O)OCc2cn(C[C@@H]3CCCN4CCCC[C@H]34)nn2)c(O)c(C(C)(C)C)c1` [Compound 16], the IC50 came to 141 ± 15.3 µM.

On to `O=Cc1ccc(OCc2cn(C[C@@H]3CCCN4CCCC[C@H]34)nn2)cc1` [Compound 17], for which the IC50 was 68.1 ± 2.2 µM. Still for that read-out and setting: next, `CC1(C)CC(=O)c2c(C(=O)OC[C@@H]3CCCN4CCCC[C@H]34)coc2C1` [Compound 25]: 24.4 ± 3.4 µM; `COc1ccccc1/C=C/C(=O)OC[C@@H]1CCCN2CCCC[C@H]12` [Compound 43]: 89.6 ± 7.7 µM; `O=C1CC(C(=O)OC[C@@H]2CCCN3CCCC[C@H]23)C2(CCCCC2)O1` (some centres unmarked) [Compound 44]: 68.9 ± 5.8 µM. As for `COc1cccc(/C=C/C(=O)OC[C@@H]2CCCN3CCCC[C@H]23)c1OC` [Compound 49], the IC50 amounted to 111 ± 12.5 µM. Regarding `Cc1cc(C)c(C(=O)OC[C@@H]2CCCN3CCCC[C@H]23)cc1C` [Compound 64], the IC50 came out at 74.1 ± 6.8 µM.

Still in this series, the particulars now being: double-reciprocal Lineweaver–Burk plot.
Take `COc1cc(-c2cn(C[C@@H]3CCCN4CCCC[C@H]34)nn2)ccc1OCc1ccccc1` [Compound 15, (1S,9aR)-1-((4-(4-(benzyloxy)-3-methoxyphenyl)-1H-1,2,3-triazol-1-yl)methyl)octahydro-2H-quinolizine]: the “Mechanism of AChE inhibition (Lineweaver–Burk plot)” value is “mixed type of inhibition; also recorded: mixed-type mechanism”.

A word on the IC50: it is the concentration that gives 50% inhibition.

The values above are taken from publication PMC10146204, “Inhibition of Acetylcholinesterase by Novel Lupinine Derivatives” (Molecules, 2023).
